By IC50 is commonly meant the concentration that gives 50% inhibition.

Data set [1] deals with GPX4. Details: method as in PMID 34788728. The conditions noted are these: cited from earlier work.
Data set [2] concerns the target T1, TXNRD1 (Homo sapiens, UniProt Q16881).
T1 construct: RX1 probe that specifically reports upon TXNRD1 enzymatic activity in live cells; endogenous in cells; host or cells: A549
T1 sequence (Q16881 151-649 limits assumed): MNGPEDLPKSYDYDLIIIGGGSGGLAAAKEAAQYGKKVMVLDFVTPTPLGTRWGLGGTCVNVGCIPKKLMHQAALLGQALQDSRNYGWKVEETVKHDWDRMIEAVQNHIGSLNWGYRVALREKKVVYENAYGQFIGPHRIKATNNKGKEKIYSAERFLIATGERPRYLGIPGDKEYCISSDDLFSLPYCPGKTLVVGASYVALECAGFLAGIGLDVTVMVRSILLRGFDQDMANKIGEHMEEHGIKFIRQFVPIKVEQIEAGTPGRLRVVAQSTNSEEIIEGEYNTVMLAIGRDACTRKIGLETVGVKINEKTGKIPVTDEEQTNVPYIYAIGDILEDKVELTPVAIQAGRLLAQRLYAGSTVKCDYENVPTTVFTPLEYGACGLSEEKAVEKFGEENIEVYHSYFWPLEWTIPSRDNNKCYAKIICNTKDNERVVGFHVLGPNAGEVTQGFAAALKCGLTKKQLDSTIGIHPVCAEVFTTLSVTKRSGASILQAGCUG
Put plainly: Cellular TXNRD1 assay with RX1 probe in A549 cells. It counts as cell-based. The settings on record: A549, 4 h incubation; RSL3 and ML162 at 1 μM or higher.
Description: Cellular TXNRD1 assay—20,000 or 10,000 A549 cells (for 4 h or 12 h and 24 h compound incubation respectively) were seeded in 96-well plates (microplates, 96 well, F-bottom, black, clear bottom, ViewPlateTM-96 F TC, PerkinElmer), in a total volume of 100 μL full DMEM (supplemented with 10% FBS and 100 nM Na2SeO3). […] The cells were subsequently incubated for the respective mentioned time, washed once with full DMEM and fresh, full DMEM, containing 75 μM RX1 and 0.75% DMSO, was added and the first fluorescent measurement was conducted immediately (timepoint = 0) using a Tecan Infinite M200 plate reader (ex/em 355/520). To follow the kinetic activation of RX1, a fluorescent measurement was done every hour for 6 h. Between measurements, cells were stored at 37 °C and 5% CO2. As a control, cells treated with compounds, but not with RX1, just the respective DMSO content, were used for background fluorescent. To determine how the cells were viable throughout the RX1 assay, the control cells were used for a viability measurement, using CellTiter-Glo® Luminescent Cell Viability Assay, after the final fluorescent measurement. For final data analysis, raw data was processed using Microsoft Excel and GraphPad Prism. In brief, the slope of the activated RX1 fluorescence increase was in each case calculated and normalized, using the viability measurement of the control cells.

Details of data set [3]: method as in PMID 29444979. The settings on record: given at high doses to mice; cited from earlier work.
Data set [4] addresses T2, TXNRD1 (Homo sapiens, UniProt Q16881).
T2 construct: made in house
T2 sequence (Q16881 1-499 isoform Q16881-5): T1 sequence (Q16881 151-649 limits assumed)
Put plainly: nano differential scanning fluorimetry, TXNRD1. The conditions noted are these: 100 μM compound. It is filed as binding. How it is done: Nano differential scanning fluorimetry—Real-time monitoring of fluorescence emission at 330 nm and 350 nm (excitation wavelength: 280 nm) and backscattering absorbance of GPX4 and TXNRD1 samples in the presence of compound was performed using a NanoTemper Prometheus NT.48 instrument. […] Standard capillaries were used, and temperature was increased from 25 to 95 °C with a ramp rate of 4.0 °C/min. Three biological replicates were carried out for each condition, and their means and standard deviations are depicted.
(In DSF a fluorescence change marks the thermal transition of the protein.)

The test system of data set [5] is A549 cells. Put plainly: Cytotoxicity assay, A549 cells. It is filed as cell-based, human. How it is done:
Cell culture—H1975 and A549 cells were cultured in RPMI-1640 medium (HyClone) with Earle's salts supplemented and penicillin/streptomycin (100 μg/ml), while HT1080 cells were cultured in MEM medium for Fig. 2 experiments. For all other cellular experiments, A549 cells were cultured in DMEM 4.5 g/L glucose medium (Gibco), and H1975 cells in RPMI-1640 ATCC Modification (Gibco). Cell cultures were maintained at 37 °C in 5% CO2 in a medium containing 10% fetal bovine serum (FBS) (GE Healthcare, A15-102 for Fig. 2 experiments and Sigma, F7524 for all others). Experiments were performed with or without supplementation with 100 nM sodium selenite as described.
Cytotoxicity assays— Cells were seeded in a 96-well plate at the density of 3 × 10^3 per well and allowed to adhere overnight. After which, cells were treated with various concentrations of compound for the indicated times, whereupon cell viability was determined using Cell Quanti-Blue™ Cell Viability Assay Kits (Nordic Diagnostica, CQBL-10K). Briefly, QUANTI-Blue Reagent (10 μL) was added to each well, incubated at 37 °C in 5% CO2 for 3 h, and then the plates were measured at 540nm/600 nm (Ex/Em) using the Tecan Microplate Reader (Morrisville NC, USA).

For data set [6], the system named is malondialdehyde (MDA) and Ptgs2 mRNA levels. Also noted: method as in PMID 32732975. The settings on record: C57BL/6 mice; rescued with Fer-1; cited from earlier work.
Data set [7] has as its target T2, TXNRD1. Put plainly: TXNRD1 activity assay, pure enzyme (Fig. 1A). It is filed as biochemical. The procedure:
Recombinant human proteins—Recombinant human selenoprotein GPX and TXNRD isoenzymes as well as recombinant human GR were cloned, expressed, and purified as described previously [[26], [27], [28]].
TXNRD1 selenite and DTNB assays were run as previously described [[26], [27], [28]]. Dose-response curves and IC50s were generated using Excel and GraphPad Prism. Briefly, initial slopes of NADPH consumption were normalized to DMSO controls and IC50s were calculated using log(inhibitor) vs. response—Variable slope (four parameters).

Data set [8] deals with T3, GPX4 (Homo sapiens, UniProt P36969).
T3 construct: We thus performed immunoblot analyses for GPX4 in A549 cells; endogenous in cells; host or cells: A549
T3 sequence (P36969 1-197): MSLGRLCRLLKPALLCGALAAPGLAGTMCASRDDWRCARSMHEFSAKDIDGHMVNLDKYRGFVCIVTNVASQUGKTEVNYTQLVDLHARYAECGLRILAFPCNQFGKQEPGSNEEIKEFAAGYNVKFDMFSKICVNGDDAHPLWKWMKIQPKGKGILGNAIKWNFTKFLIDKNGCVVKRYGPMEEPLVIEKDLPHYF
Put plainly: GPX4 immunoblot of treated A549 cells. It is filed as cell-based. The conditions noted are these: A549, 3 μM, 24 h. The procedure: Western blots—A549 and H1975 cells cultured for at least 72 h in the presence of 100 nM Na2SeO3 (Sigma) were seeded in 90 mm dishes (VWR) at 1 × 10^6 cells per dish for 18 h prior to main treatments. Four hours after seeding dishes, cells were pretreated with 2 μM Fer-1 for 14 h prior to adding RSL3, when indicated. After 14 h, main treatments with TRi-1, TRi-2, RSL3, ML162, ML210 or 0.03% v/v DMSO in doses indicated in each figure were added for 6 or 24 h. Total DMSO content was 0.05%. Cells were then scraped, washed in PBS, and suspended in 150–200 μL lysis buffer containing 50 mM Tris-HCl (pH 7.5), 2 mM EDTA, 0.15 M NaCl, 1% Triton X-100, and cOmplete protease inhibitor cocktail (Roche). Supernatants were collected after 30 s of sonication, and 30 min centrifugation at 17000×g, and protein concentration was measured using Pierce bicinchoninic acid (BCA) protein assay kit (Thermo Fischer Scientific). […] Chemiluminescent signal was detected using anti-rabbit and anti-mouse HRP-IgG secondary antibodies (Southern Biotech, 4030–05, LOT A2718-MM00 and 1030–05, LOT L3919-XE81B respectively) and ECL detection reagent (Cytiva Amersham). Protein quantification based on band densitometry was performed in Quantity One and Image Lab (BioRad).
In general terms: Immunoblotting shows a protein as a band on a membrane.

The subject of data set [9] is A549 cells. Put plainly: A549 viability in cellular TXNRD1 (RX1) experiments. The conditions noted are these: A549, 4 h, Extended Data Fig. 3A.
Description: Cellular TXNRD1 assay—20,000 or 10,000 A549 cells (for 4 h or 12 h and 24 h compound incubation respectively) were seeded in 96-well plates (microplates, 96 well, F-bottom, black, clear bottom, ViewPlateTM-96 F TC, PerkinElmer), in a total volume of 100 μL full DMEM (supplemented with 10% FBS and 100 nM Na2SeO3). The cells were incubated for 16 h at 37 °C and 5% CO2, followed by media change and addition of indicated compounds at respective concentrations (0.1 μM–20 μM), including 0.6% DMSO. The cells were subsequently incubated for the respective mentioned time, washed once with full DMEM and fresh, full DMEM, containing 75 μM RX1 and 0.75% DMSO, was added and the first fluorescent measurement was conducted immediately (timepoint = 0) using a Tecan Infinite M200 plate reader (ex/em 355/520). To follow the kinetic activation of RX1, a fluorescent measurement was done every hour for 6 h. Between measurements, cells were stored at 37 °C and 5% CO2. As a control, cells treated with compounds, but not with RX1, just the respective DMSO content, were used for background fluorescent. To determine how the cells were viable throughout the RX1 assay, the control cells were used for a viability measurement, using CellTiter-Glo® Luminescent Cell Viability Assay, after the final fluorescent measurement. For final data analysis, raw data was processed using Microsoft Excel and GraphPad Prism. In brief, the slope of the activated RX1 fluorescence increase was in each case calculated and normalized, using the viability measurement of the control cells.
Extended Data Figure 3: A549 cytotoxicity in cellular TXNRD1 experiments following final
A) Cell viability following 4-hour incubation with
compounds; B) Viability following 12-hour incubation with compounds; C) Viability
following 24 -hour incubation with compounds. The cell viability in was in each case measured
using the Cell Quanti-BlueTM Cell Viability Assay Kit and the data are presented as mean ±
s.d. of n = 3 biological replicates, each containing n = 3 technical replicates.

Take `COc1ccc([N+](=O)[O-])c(S(=O)(=O)c2ccc(Cl)cc2)n1` [TRi-1]: in the data set on GPX4 [1], the “Effect on GPX4 thermostability” value was “no major effect”. The “Effect on cellular TXNRD1 activity (RX1) at 4 h” value on TXNRD1 [2] is reported as “effectively inhibit cellular TXNRD1 activity”. Further, in data set [3], the “Antitumoral effect in mice” value is listed as “antitumoral properties” and the Toxicity to mice result is “lack overt toxicity”. Further, the “Thermal stabilization of TXNRD1” value on TXNRD1 [4] is given as “displaying thermal stabilization of the enzyme”. Also, the IC50 in the data set with A549 cells [5] (24 h, media not supplemented with selenium) is ~20 µM. Further, the “Effect of ferrostatin-1 or MitoTEMPO co-treatment on cytotoxicity” value with A549 cells [5] (A549, 24 h, no selenium supplementation) is “co-treatment with neither ferrostatin-1 nor MitoTEMPO had any effect”. Moreover, the Cell viability result in the data set with A549 cells [5] (A549, 24 h, under all tested conditions (with/without Se, blockers)) is recorded as “about 40%”. In addition, the “Difference in response profiles between cell lines” value in the data set with A549 cells [5] (A549, H1975 and HT1080, 24 h) is reported as “no stark difference in response profiles”. In addition, in data set [6], the “MDA and Ptgs2 levels” value was “increase MDA and Ptgs2 levels”. In addition, on TXNRD1 [7] (pure enzyme systems, Fig. 1A lower panels), the “Specificity among GPX1, GPX4, GR and TXNRD1” value is given as “specific inhibitors of TXNRD1”. Also, on TXNRD1 [7] (recombinant TXNRD1, Fig. 1A assay conditions, read-out: IC50 TXNRD1 inhibition), the IC50 is ~0.5 µM. Further, on GPX4 [8], the “GPX4 expression levels compared to DMSO controls (immunoblot)” value is “no obvious changes in its expression levels”. In addition, the “Effect on cell viability at 4 h” value in the data set with A549 cells [9] is reported as “no overt effects on viability”.

The values are drawn from article PMC10149367, “The ferroptosis inducing compounds RSL3 and ML162 are not direct inhibitors of GPX4 but of TXNRD1” (Redox Biology, 2023).
